Values quoted from earlier work as cited in patent US20100120727A1, “Eflornithine Prodrugs, Conjugates and Salts, and Methods of Use Thereof” (Kyphia Pharmaceuticals, Inc., priority 2008, published 2010).
Where two headings read alike, the source gives them in different places. Values belong to the compound of their own block, whether it stands above or below them.

How the values were obtained:
MCA sarcoma = details: in vivo
tumor putrescine levels = details: DFMO infusion
[1] = not given; remark: listed apart in the source
[2] = not given; remark: listed apart in the source

Structure (SMILES): NCCCC(N)(C(=O)O)C(F)F (racemic) [DFMO, 2-(Difluoromethyl)-DL-ornithine]
tumor growth rate and regression (MCA sarcoma): reduces the growth rate of an MCA sarcoma but does not produce tumor regression
decrease in tumor putrescine levels (tumor putrescine levels): 90%

Structure (SMILES): CC(=O)Oc1ccccc1C(=O)O [Aspirin, acetylsalicylic acid]
solubility in water: very low solubility in water

Structure (SMILES): CC1=C(CC(=O)O)c2cc(F)ccc2/C1=C\c1ccc(S(C)(=O)=O)cc1 [Sulindac sulfone]
COX-inhibitory activity (COX): lacks COX-inhibitory activity

Further lines, results first:

mild gastrointestinal effects, share of patients ([1]; abdominal pain and nausea most frequent): ~20%
skin rash and pruritus, share of patients ([1]; human, in vivo): 5%
time to peak plasma levels ([2]; administered with food): 3 to 4 h
fraction of the drug absorbed ([2]; after oral administration): about 90%
time to peak plasma levels ([2]; fasting patients): about 2 hours
Structure (SMILES): CC1=C(CC(=O)O)c2cc(F)ccc2/C1=C\c1ccc([S+](C)[O-])cc1 (stereo not shown) [Sulindac, (Z)-5-Fluoro-2-methyl-1-((4 (methylsulfinyl)phenyl)methylene)1H-indene-3-acetic acid]

mean half-life ([2]; in vivo): 16.4 h
Structure (SMILES): CSc1ccc(/C=C2/C(C)=C(CC(=O)O)c3cc(F)ccc32)cc1 [sulfide metabolite]
